The experiment concerns CEM cells HIV-1 protection, formazan growth assay. Put plainly: NCI AIDS Antiviral Assay. Conditions: for IC50: measured here: growth of uninfected CEM cells. The gist of the method:
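Protection of CEM cells against HIV-1 measured as cell growth via soluble formazan read-out, with five concentrations tested on both infected and uninfected cells; failure to protect may reflect toxicity.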

This note sets out measurements from PubChem BioAssay AID179 (DTP/NCI, 2004).

Active and inactive are the calls of the source.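 Rule for the calls: active = compounds giving half or more protection of infected cells from virus-caused growth loss, again on retest; inactive = the rest.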

A word on the EC50: it is the concentration giving half of the maximal effect. A word on the IC50: it is the concentration at which inhibition is half-maximal. A higher IC50 goes with weaker potency in that assay.

`COc1cc2c(cc1C)n(O)c(C)c(C(=O)C/C(=N/NC(=O)C[N+](C)(C)C)C(=O)Nc1cccc(Cl)c1C)[n+]2=O`: the EC50 was above 12 µM and the IC50 was above 12 µM.
On to `CC(=O)O[C@]12CCCC1C1(O)C(O)CCCC12` (some centres undefined), for which the EC50 is above 200 µM and the 50% inhibitory concentration (IC50) was above 200 µM.
On to `CCCCCCCCCCCCCCCC(=O)OCC(C[As](=O)(O)O)OC(=O)CCCCCCCCCCCCCCC` (centres undefined), for which the EC50 is above 38 µM and the IC50 was above 38 µM.
With `O=C(/C=C/c1ccccc1)NCCC1(O)C(=O)Nc2ccccc21` (centres undefined), the EC50 is above 562 µM and the IC50 was found to be 525 µM.
Consider `BrCC[N+]12CCCN1CCC2`, for which the outcome was inactive.
Take `CCn1c(SCC(=O)NNC(=S)Nc2ccc(F)cc2)nc2ccccc2c1=O`: the EC50 is above 200 µM and the IC50 came out at 129 µM.
As for `O=[N+]([O-])c1ccccc1Sc1ccccc1[N+](=O)[O-]`, the EC50 was above 7.94 µM.
Regarding `CCCCCC=C(c1ccc(OC)c(S(=O)(=O)N(C)C)c1)c1ccc(OC)c(S(=O)(=O)N(C)C)c1`, the EC50 is above 35.5 µM and the IC50 is above 35.5 µM.
On to `O=C1CN=C(c2ccc[nH]2)c2cc(Cl)ccc2N1`, for which the EC50 was 2.45 µM and the IC50 worked out at 3.98 µM.
Turning to `CC1SC2=NC3=C(c4ccccc4C3=O)C(c3ccc(Br)cc3)N2C1=O` (centres undefined), the EC50 is above 32.4 µM and the IC50 was above 32.4 µM.
Consider `O=NNc1ccc(S(=O)c2ccccc2)cn1` (centres undefined), for which the EC50 is above 200 µM and the IC50 was above 200 µM.
As for `O=C1c2c(O)cccc2C(C2OC(CO)C(O)C(O)C2O)c2cc(CO)cc(O)c21` (centres undefined), the EC50 is above 603 µM and the IC50 was 389 µM.
For `CN(/N=C/c1cccc2cccnc12)c1ccccc1`, the result was inactive.
Consider `C=C(C(=O)C(=O)Oc1ccc(Cl)cc1)C(=O)c1ccc(C)cc1`, for which the EC50 was above 79.4 µM and the IC50 is above 79.4 µM.
On to `O=C1NC(=O)C(=CN2C(=O)/C(=C/c3ccc([N+](=O)[O-])cc3)SC2=S)C(=O)N1`, for which the EC50 was above 200 µM and the IC50 was found to be 115 µM.
On the same counts, the results for `COc1ncc(C#CC(=O)c2ccccc2OC)c(OC)n1` are above 0.2 µM and 0.132 µM.
The like results for `CCCCCCCCCc1cc(=O)c2ccc(O)cc2o1` were, in that order, above 1.91 µM and above 1.91 µM.
For the compound `O=S(=O)(O)c1ccc(N=Nc2ccc(N=Nc3c(O)c(S(=O)(=O)O)cc4cc(S(=O)(=O)O)ccc34)cc2)cc1`, the result was inactive.
On to `CCOC(=O)c1cc(N/N=C2/CCCNC2=O)c[nH]1`, for which the EC50 was above 200 µM and the IC50 came to 41.7 µM.
For `C/C=C(/C)C(=O)O[C@H]1C[C@@H]2[C@@H](O)c3occ(C)c3C[C@]2(C)[C@@H](C)C1`, the EC50 is above 200 µM and the IC50 amounted to 10.5 µM.
Regarding `COC(C)(C)C1(O)CCC(C)CC1=O` (centres undefined), the EC50 was above 100 µM and the IC50 is above 100 µM.
Regarding `CC[P+]1(c2ccccc2)[C@@H](C)CC[C@@H]1C`, the EC50 is above 200 µM and the IC50 came to 91.2 µM.
With `COc1ccc(N[C@H](CS(=O)c2ccc(C)cc2)C(F)(F)F)cc1` (some centres undefined), the EC50 is above 200 µM and the IC50 is above 200 µM.
Consider `CC1CCC2c3c([nH]c4ccccc34)C3C(=O)N(c4ccccc4)C(=O)C3C2C1` (centres undefined), for which the outcome was inactive.
As for `COc1ccc2c(c1)[n+](=O)c(C(=O)C/C(=N/NC(=O)c1ccccc1O)C(=O)Nc1ccc(Cl)c(C(F)(F)F)c1)c(C)n2[O-]`, the EC50 is above 1.2 µM and the concentration for half-maximal inhibition (IC50) was above 1.2 µM.
With `OCC1=CCC2c3[nH]c4ccccc4c3CCN2C1` (centres undefined), the EC50 was above 372 µM and the IC50 was above 372 µM.
As to `CCCCCCCCCCCCC(F)C(=O)OCC1OC(n2cc(C)c(=O)[nH]c2=O)CC1N=[N+]=[N-]` (centres undefined), the EC50 is 0.0123 µM and the IC50 was found to be 102 µM.
The like results for `CCCCN(CCCC)C(=N)OC` were, in that order, above 200 µM and 70.8 µM.
Turning to `CCn1c(SC(C)C(=O)c2c(C)n(C)n(-c3ccccc3)c2=O)nc2ccccc2c1=O` (centres undefined), the EC50 is above 112 µM and the IC50 is above 112 µM.
As for `CS(=O)(=O)OCC1CN(S(C)(=O)=O)c2cc(O)ccc21` (centres undefined), the EC50 is above 200 µM and the IC50 stood at 1.51 µM.
On to `N#Cc1c(NC(=S)NC(=O)c2ccccc2)nc2c(c1-c1ccccc1)CCCC2`, for which the EC50 is above 200 µM and the half-maximal inhibitory concentration (IC50) was 141 µM.
The compound `O=C(O)C1C(c2c3ccc(=O)c(O)c-3oc3c(O)c(O)ccc23)C2(Cl)C(Cl)=C(Cl)C1(Cl)C2(Cl)Cl` (centres undefined) had an EC50 above 151 µM and an IC50 above 151 µM.
As to `N#CC1(O)CCCCCCCCCCC1`, the EC50 was above 200 µM and the IC50 was above 200 µM.
For `COC(=O)/C(C#N)=C1\N=NNN1CCCN1CCOCC1`, the result was inactive.
Same read-out and setting: in the case of `Cc1cccc2c1CCC21OC(=O)c2c1ccc1ccccc21` (centres undefined) it was “inactive”.
Consider `Cn1c2ccccc2c(=NNc2cccc(C(=O)O)c2)c2ccccc21`, for which the EC50 is above 200 µM and the IC50 is 3.8 µM.
Consider `O=CC(=O)c1ccccc1`, for which the outcome was inactive.
As to `CSc1nc(C)c(C(=O)CCN2CCN(c3ccccn3)CC2)s1`, the EC50 was above 87.1 µM and the IC50 worked out at 4.37 µM.
The like results for `Cc1c2ccc(Cl)cc2nc2ccc(OCCNC(=O)[C@H](CCCN=C(N)N)NC(=O)OC(C)(C)C)cc12` were, in that order, above 200 µM and 89.1 µM.
The like results for `c1cc(CSSCc2ccncc2)ccn1` were, in that order, above 200 µM and 0.891 µM.
Regarding `COc1cc2c(cc1OC)C(Cc1ccc(O)cc1)N(C)CC2` (centres undefined), the outcome was inactive.
On the same count and under the same terms, in the case of `COc1ccc(Sc2ccccc2N)cc1` it was “inactive”.
Take `CC(=O)OCC1OC(n2c(-c3ccc(C)cc3)cc(-c3ccccc3)c(C#N)c2=S)C(OC(C)=O)C(OC(C)=O)C1OC(C)=O` (centres undefined): the EC50 is above 200 µM and the IC50 stood at 67.6 µM.
Regarding `N#C/C(=C\c1ccc(F)cc1)c1nc2ccccc2c(=O)[nH]1`, the result was inactive.
In the case of `COP(=O)(OC)C(=NCc1ccccc1)NNc1ccc([N+](=O)[O-])cc1`, the EC50 is above 200 µM and the IC50 came out at 191 µM.
For the compound `N#CCc1ccc(C(C#N)/C(CCCC(=O)Nc2cccc([N+](=O)[O-])c2)=N\NC(=O)NN)cc1` (centres undefined), the EC50 is above 389 µM and the IC50 is above 389 µM.
Consider `Cc1ccc(S(=O)(=O)N/N=C/c2oc(-c3cccc([N+](=O)[O-])c3)c(-c3cccc([N+](=O)[O-])c3)c2[N+](=O)[O-])cc1`, for which the EC50 is above 46.8 µM and the IC50 is above 46.8 µM.
In the case of `NCCN1C(=O)C2C3c4ccccc4C(c4ccccc43)C2C1=O` (centres undefined), the outcome was inactive.
Regarding `COC(=O)[C@]12CSCN1C(=O)C(C(C)=O)=NN2C(=O)[C@](OC)(c1ccccc1)C(F)(F)F`, the EC50 is above 200 µM and the IC50 is above 200 µM.
Turning to `CN1C(=O)[C@@H]2[C@@H]3c4ccccc4N(S(=O)(=O)C(F)(F)F)[C@@H]3c3[nH]c4ccccc4c3[C@@H]2C1=O`, the EC50 was above 200 µM and the IC50 came out at 9.33 µM.
On to `NCCCCC(NC(=O)C(Cc1cnc[nH]1)NC(=O)CN)C(=O)O.[Cu+2]` (centres undefined), for which the EC50 is above 200 µM and the half-inhibitory concentration (IC50) was 70.8 µM.
As to `O=C(O)c1c2c(cc3c1CC1(Cc4ccccc4C1)C3)CCC2`, the EC50 is above 200 µM and the concentration for half-maximal inhibition (IC50) turned out to be 45.7 µM.
With `O=Cc1ccc2c(c1I)OCO2`, the EC50 was above 67.6 µM and the IC50 turned out to be 38.9 µM.
The like results for `Cn1cnc2c(C#N)c(C#N)nn2c1=O` were, in that order, above 200 µM and above 200 µM.
As for `CC(C)(C)OC(=O)N/N=C(/N)Cc1ccccc1`, the EC50 was above 200 µM and the IC50 was above 200 µM.
In the case of `C=CCOC(=O)Cn1ccc(=O)[nH]c1=O`, the EC50 is above 200 µM and the IC50 was above 200 µM.
With `COC1=C(C)C2CC(=O)OC3CC4C(C)CC(OC(C)=O)C(=O)[C@]4(C)C(C1=O)[C@@]32C` (some centres undefined), the outcome was inactive.
Consider `CC(=O)Nc1ccc(Sc2nnc(NC(C)=O)s2)cc1`, for which the EC50 was above 32.4 µM and the IC50 is above 32.4 µM.
In the case of `C#CC1(O)CCC2C3CCc4cc(OC)ccc4C3CCC21C` (centres undefined), the EC50 is above 200 µM and the 50% inhibitory concentration (IC50) was 74.1 µM.
With `COc1ccc(C2c3cc4c(cc3OC(NNC(N)=O)C2C)OCO4)cc1` (centres undefined), the EC50 was above 200 µM and the IC50 turned out to be 3.89 µM.
With `[Co+2].[O-]c1ccccc1C=NCc1ccccc1.[O-]c1ccccc1C=NCc1ccccc1`, the EC50 was above 19.5 µM and the IC50 is above 19.5 µM.
Consider `O=S(=O)(c1ccc(Cl)cc1)c1ccccc1C1=NCCN1`, for which the EC50 is above 200 µM and the 50% inhibitory concentration (IC50) was above 200 µM.
Turning to `O=C1C(=Cc2c[nH]c3ccccc23)C(=O)c2ccccc21`, the EC50 was above 200 µM and the IC50 came to 191 µM.
Regarding `CN(CCN)[C@H](CSSC[C@@H](c1ccccc1O)N(C)CCN)c1ccccc1O`, the EC50 was above 200 µM and the IC50 turned out to be 17.8 µM.
For the compound `COc1ccc(-c2ccccc2)c(N/N=C2\CCCNC2=O)c1`, the outcome was inactive.
For `O=[N+]([O-])c1ccc(N2N=C(c3ccc4ccccc4c3O)CC2c2ccc(Cl)cc2)c([N+](=O)[O-])c1` (centres undefined), the EC50 is above 200 µM and the concentration for half-maximal inhibition (IC50) stood at 43.7 µM.
`C[C@]12CC[C@H]3[C@@H](CC=C4C[C@@H](O)CC[C@@]43C)[C@@H]1CC[C@@H]2N(CCO)CCO`: the EC50 was above 200 µM and the IC50 was 60.3 µM.
Consider `CC1(C)CNCC(C)(OCc2ccccc2)C(=O)NC(C)(C)CNCC(C)(OCc2ccccc2)C(=O)N1` (centres undefined), for which the EC50 is 3.8 µM and the half-maximal inhibitory concentration (IC50) turned out to be 24.5 µM.
For the compound `COc1ccc2nc3cc([N+](=O)[O-])ccc3c(Nc3ccc(S(=O)(=O)Nc4ncccn4)cc3)c2c1`, the EC50 was above 200 µM and the 50% inhibitory concentration (IC50) was 102 µM.
As for `Cc1ccc(S(=O)(=O)N2CCCC2C(=O)O[C@H]2CC[C@H]3CC=C[C@H]32)cc1` (some centres undefined), the EC50 was above 200 µM and the IC50 was determined as 20.9 µM.
Take `O=C(Nc1c(C(=O)NC2CCCCC2)[nH]c(=O)[nH]c1=O)c1ccc(Cl)cc1`: the result was inactive.
Turning to `Nc1ncnc2c1ncn2C1OC(CSC(F)F)C(O)C1O` (centres undefined), the EC50 is above 759 µM and the IC50 worked out at 219 µM.
